17 molecules from patent US11286263B2, “Macrocyclic fluorine substituted indole derivatives” (The Broad Institute, Inc., priority 2017, dated 2022) can be followed below.

For this test, the target named is BCL-XL (Homo sapiens (Human), UniProt Q07817). As to the kind of experiment: Protein-protein interaction assay BCL-XL/Bad BH3 peptide (BCL-XL assay), TR-FRET. In kind it is binding. As to conditions: median. On the procedure: Assay 2 Protein-Protein Interaction Assay: BCL-XL/Bad BH3 Peptide (BCL-XL Assay)
The dose-dependent inhibition by the compounds described in this invention of the interaction between BCL-XL and the BH3 domain of Bad (both human) was determined using a steady state binding competition assay with time-resolved fluorescence energy transfer (TR-FRET) readout. For that purpose BCL-XL (amino acids 1-212, C-terminal fused to a hexahistidine (6× His) tag (SEQ ID 3) and a synthetic Bad BH3-derived peptide of sequence Biotin-PEG2-PEG2-NLWAAQRYGRELRR-Nle-SDEFVDSFKK-amide (SEQ ID 4) served as protein receptor and tracer ligand respectively. The recombinant BCL-XL protein (expressed in Ecol) was purchased from BPS Bioscience (San Diego, Calif., USA). The Bad BH3-derived peptide can be obtained from e.g. Biosyntan (Berlin, Germany).
In the assay 11 different concentrations of each compound (0.1 nM, 0.33 nM, 1.1 nM, 3.8 nM, 13 nM, 44 nM, 0.15 μM, 0.51 μM, 1.7 μM, 5.9 μM and 20 μM) were typically measured as duplicates in the same microtiter plate. For that, 100-fold concentrated DMSO solutions were prepared by serial dilutions (1:3.4) of a 2 mM stock solution in a clear, 384-well microtiter plate (Greiner Bio-One, Frickenhausen, Germany). From there, 50 nl were transferred in a dark test plate (Greiner Bio-One, Frickenhausen, Germany). The assay was initiated by addition of 2 μl of a 2,5-fold concentrated His-BCL-XL solution (usually for a 1 nM end concentration in 5 μl reaction volume) in aqueous assay buffer [50 mM Tris/HCl pH 7, 100 mM sodium chloride (NaCl), 50 μM potassium fluoride (KF), 0.005% Tween-20, 2 mM DTT, 0.1% bovine gamma globulin (BGG)] to the compounds in the assay plate. This was followed by a 10-minute incubation step at 22° C. for pre-equilibration of the putative complex between His-BCL-XL and the compounds. After that, 3 μl of a 1.67-fold concentrated solution (in assay buffer) consisting of Bad BH3-derived peptide (1 nM end concentration) and TR-FRET detection reagents [1.67 nM anti-His-Eu cryptate and 1.67 nM streptavidin-XL665 (both from Cisbio Bioassays, Codolet, France)], were added.
The mixture was incubated in the dark for one hour at 22° C. and then overnight at 4° C. The formation of BCL-XL/Bad complexes was determined by measuring the resonance energy transfer of the anti-His-Eu-cryptate antibody to the streptavidin-XL665 present in the reaction. For that purpose, the fluorescence emission at 620 nm and 665 nm after excitation at 330-350 nm was measured in a TR-FRET measuring instrument, for instance a Rubystar or a Pherastar (both from BMG Lab Technologies, Offenburg, Germany) or a Viewlux (Perkin-Elmer). The ratio of the emission at 665 nm and at 622 nm was used as indicator of the amount of BCL-XL/Bad complexes present.
The resulting data (ratio) were normalized, taking 0% inhibition as the mean value of control measurements (usually 32 data points) where all reagents were included. In this case 50 nl DMSO were used instead of compounds. A 100% inhibition corresponded to the mean value of control measurements (usually 32 data points) where all reagents except BCL-XL were included. IC50 values were determined by regression analysis based on a 4 parameter equation (minimum, maximum, IC50, Hill; Y=Max+(Min−Max)/(1+(X/IC50)^Hill) using the Screener Software (Genedata).
(In general: Time-resolved FRET reads energy transfer from a long-lived donor to a nearby acceptor.)

Sequence of BCL-XL (Q07817 1-212): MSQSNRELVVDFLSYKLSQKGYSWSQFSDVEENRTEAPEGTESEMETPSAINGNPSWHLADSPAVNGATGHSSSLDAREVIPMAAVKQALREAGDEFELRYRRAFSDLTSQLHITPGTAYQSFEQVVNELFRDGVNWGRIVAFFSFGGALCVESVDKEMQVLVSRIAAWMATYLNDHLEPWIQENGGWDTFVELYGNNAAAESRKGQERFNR

The molecule `Cc1c2c(nn1C)COC/C=C\Cn1c(C(=O)O)c(CCCOc3cccc4ccccc34)c3ccc(F)c-2c31` (racemic) [Example 1, (rac)-(11Z)-4-fluoro-2,3-dimethyl-7-[3-(naphthalen-1-yloxy)propyl]-2,10,13,15-tetrahydro-pyrazolo[4′,3′:9,10][1,6]oxazacycloundecino[8,7,6-hi]indole-8-carboxylic acid] yielded an IC50 of over 20 µM.

On to `CCc1c2c(nn1C)COC/C=C\Cn1c(C(=O)O)c(CCCOc3cccc4ccccc34)c3ccc(F)c-2c31` (racemic) [Example 5, (rac)-(11Z)-3-ethyl-4-fluoro-2-methyl-7-[3-(naphthalen-1-yloxy)propyl]-2,10,13,15-tetrahydro-pyrazolo[4′,3′:9,10][1,6]oxazacycloundecino[8,7,6-hi]indole-8-carboxylic acid], for which the concentration for half-maximal inhibition (IC50) is over 20 µM.

In turn, `Cc1nn(C)c2c1-c1c(F)ccc3c(CCCOc4cccc5ccccc45)c(C(=O)O)n(c13)C/C=C\COC2` (racemic) [Example 9, (rac)-(Z)-13-fluoro-10,12-dimethyl-1-(3-(naphthalen-1-yloxy)propyl)-4,7,9,10-tetrahydro-pyrazolo[4′,3′:9,10][1]oxa[6]azacycloundecino[8,7,6-hi]indole-2-carboxylic acid] gave a concentration for half-maximal inhibition (IC50) of over 20 µM.

As to `Cc1nn(C)c2c1-c1c(F)ccc3c(CCCOc4cccc5ccccc45)c(C(=O)O)n(c13)CCCCOC2` (racemic) [Example 10, (rac)-13-fluoro-10,12-dimethyl-1-(3-(naphthalen-1-yloxy)propyl)-4,5,6,7,9,10-hexahydro-pyrazolo[4′,3′:9,10][1]oxa[6]azacycloundecino[8,7,6-hi]indole-2-carboxylic acid], the 50% inhibitory concentration (IC50) is over 20 µM.

The molecule `CCc1nn(C)c2c1-c1c(F)ccc3c(CCCOc4cccc5ccccc45)c(C(=O)O)n(c13)C/C=C\COC2` (racemic) [Example 11, (rac)-(Z)-12-ethyl-13-fluoro-10-methyl-1-(3-(naphthalen-1-yloxy)propyl)-4,7,9,10-tetrahydro-pyrazolo[4′,3′:9,10][1]oxa[6]azacycloundecino[8,7,6-hi]indole-2-carboxylic acid] had an IC50 of over 20 µM.

Take `Cc1c2c(nn1C)COCCCCn1c(C(=O)O)c(CCCOc3cccc4c3CCCC4)c3ccc(F)c-2c31` (racemic) [Example 18, (rac)-13-fluoro-11,12-dimethyl-1-(3-((5,6,7,8-tetrahydronaphthalen-1-yl)oxy)propyl)-4,5,6,7,9,11-hexahydropyrazolo[4′,3′:9,10][1]oxa[6]azacycloundecino[8,7,6-hi]indole-2-carboxylic acid]: the IC50 was over 20 µM.

On to `Cc1c2c(nn1C)COCCCCn1c(C(=O)O)c(CCCOc3cccc4c3CCC4)c3ccc(F)c-2c31` (racemic) [Example 19, (rac)-1-(3-((2,3-dihydro-1H-inden-4-yl)oxy)propyl)-13-fluoro-11,12-dimethyl-4,5,6,7,9,11-hexahydropyrazolo[4′,3′:9,10][1]oxa[6]azacycloundecino[8,7,6-hi]indole-2-carboxylic acid], for which the half-inhibitory concentration (IC50) is over 20 µM.

Regarding `Cc1cc(OCCCc2c(C(=O)O)n3c4c(c(F)ccc24)-c2c(nn(C)c2C)COCCCC3)cc(C)c1Cl` (racemic) [Example 20, (rac)-1-(3-(4-chloro-3,5-dimethylphenoxy)propyl)-13-fluoro-11,12-dimethyl-4,5,6,7,9,11-hexahydropyrazolo[4′,3′:9,10][1]oxa[6]azacycloundecino[8,7,6-hi]indole-2-carboxylic acid], the concentration for half-maximal inhibition (IC50) is over 20 µM.

For `CCc1c2c(nn1C)COCCCCn1c(C(=O)O)c(CCCOc3cccc4c3CCCC4)c3ccc(F)c-2c31` (racemic) [Example 29, (rac)-12-ethyl-13-fluoro-11-methyl-1-(3-((5,6,7,8-tetrahydronaphthalen-1-yl)oxy)propyl)-4,5,6,7,9,11-hexahydropyrazolo[4′,3′:9,10][1]oxa[6]azacycloundecino[8,7,6-hi]indole-2-carboxylic acid], the IC50 was over 20 µM.

Regarding `CCc1c2c(nn1C)COCCCCn1c(C(=O)O)c(CCCOc3cc(C)c(Cl)c(C)c3)c3ccc(F)c-2c31` (racemic) [Example 31, (rac)-1-(3-(4-chloro-3,5-dimethylphenoxy)propyl)-12-ethyl-13-fluoro-11-methyl-4,5,6,7,9,11-hexahydropyrazolo[4′,3′:9,10][1]oxa[6]azacycloundecino[8,7,6-hi]indole-2-carboxylic acid], the half-inhibitory concentration (IC50) was over 20 µM.

Turning to `Cc1nn(C)c2c1-c1c(F)ccc3c(CCCOc4cccc5cc(F)ccc45)c(C(=O)O)n(c13)CCCCOC2` (racemic) [Example 32, (rac)-13-fluoro-1-(3-((6-fluoronaphthalen-1-yl)oxy)propyl)-10,12-dimethyl-4,5,6,7,9,10-hexahydropyrazolo[4′,3′:9,10][1]oxa[6]azacycloundecino[8,7,6-hi]indole-2-carboxylic acid], the IC50 is over 20 µM.

For the molecule `Cc1nn(C)c2c1-c1c(F)ccc3c(CCCOc4ccc(F)c5ccccc45)c(C(=O)O)n(c13)CCCCOC2` (racemic) [Example 33, (rac)-13-fluoro-1-(3-((4-fluoronaphthalen-1-yl)oxy)propyl)-10,12-dimethyl-4,5,6,7,9,10-hexahydropyrazolo[4′,3′:9,10][1]oxa[6]azacycloundecino[8,7,6-hi]indole-2-carboxylic acid], the IC50 is over 20 µM.

As for `Cc1nn(C)c2c1-c1c(F)ccc3c(CCCOc4cccc5c4CCCC5)c(C(=O)O)n(c13)CCCCOC2` (racemic) [Example 34, (rac)-13-fluoro-10,12-dimethyl-1-(3-((5,6,7,8-tetrahydronaphthalen-1-yl)oxy)propyl)-4,5,6,7,9,10-hexahydropyrazolo[4′,3′:9,10][1]oxa[6]azacycloundecino[8,7,6-hi]indole-2-carboxylic acid], the IC50 was over 20 µM.

With `Cc1nn(C)c2c1-c1c(F)ccc3c(CCCOc4cccc5c4CCC5)c(C(=O)O)n(c13)CCCCOC2` (racemic) [Example 35, (rac)-1-(3-((2,3-dihydro-1H-inden-4-yl)oxy)propyl)-13-fluoro-10,12-dimethyl-4,5,6,7,9,10-hexahydropyrazolo[4′,3′:9,10][1]oxa[6]azacycloundecino[8,7,6-hi]indole-2-carboxylic acid], the half-inhibitory concentration (IC50) is over 20 µM.

As for `Cc1cc(OCCCc2c(C(=O)O)n3c4c(c(F)ccc24)-c2c(C)nn(C)c2COCCCC3)cc(C)c1Cl` (racemic) [Example 36, (rac)-1-(3-(4-chloro-3,5-dimethylphenoxy)propyl)-13-fluoro-10,12-dimethyl-4,5,6,7,9,10-hexahydropyrazolo[4′,3′:9,10][1]oxa[6]azacycloundecino[8,7,6-hi]indole-2-carboxylic acid], the concentration for half-maximal inhibition (IC50) was over 20 µM.

`CCc1nn(C)c2c1-c1c(F)ccc3c(CCCOc4cccc5c4CCCC5)c(C(=O)O)n(c13)CCCCOC2` (racemic) [Example 44, (rac)-12-ethyl-13-fluoro-10-methyl-1-(3-((5,6,7,8-tetrahydronaphthalen-1-yl)oxy)propyl)-4,5,6,7,9,10-hexahydropyrazolo[4′,3′:9,10][1]oxa[6]azacycloundecino[8,7,6-hi]indole-2-carboxylic acid] registered an IC50 of over 20 µM.

`CCc1nn(C)c2c1-c1c(F)ccc3c(CCCOc4cccc5c4CCC5)c(C(=O)O)n(c13)CCCCOC2` (racemic) [Example 45, (rac)-1-(3-((2,3-dihydro-1H-inden-4-yl)oxy)propyl)-12-ethyl-13-fluoro-10-methyl-4,5,6,7,9,10-hexahydropyrazolo[4′,3′:9,10][1]oxa[6]azacycloundecino[8,7,6-hi]indole-2-carboxylic acid] showed an IC50 of over 20 µM.

As usually defined, the IC50 is the concentration that inhibits the measured activity by half.
